This passage reports Kd results from publication PMC4764975, “Probing the enzyme kinetics, allosteric modulation and activation of α1- and α2-subunit-containing AMP-activated protein kinase (AMPK) heterotrimeric complexes by pharmacological and physiological activators” (Biochemical Journal, 2016).

Structures are written as SMILES. Like-named read-outs stand apart in the source and are kept apart here.

Experiment in all cases: SPR direct binding (Biacore)
The target of one test is T1, BAP-tagged AMPK α1β1γ1 (Homo sapiens, UniProt P54619+Q13131+Q9Y478).
T1 construct: Recombinant full-length AMPK heterotrimeric complexes α1β1γ1, α1β2γ1, α1β2γ3, α2β1γ1, α2β2γ1 and α2β2γ3 were cloned; 6X-His (N); AviTag (BAP); made in house; host or cells: E. coli (co-expressed with BirA)
The method, then: (§1) SPR experiments were performed on a Biacore™ 3000 instrument (GE Healthcare). BAP-tagged AMPK isoform (α1β1γ1, α1β2γ1, α2β2γ1, α2β2γ3) was captured on to a streptavidin sensor chip to levels ranging from 4000 to 6000 RU. […] Binding responses were processed using Scrubber 2 (BioLogic Software Pty Ltd) to zero, x-align, double reference and corrected for excluded volume effect of DMSO in the data. […] The compound was injected at a flow rate of 50 μl/min with total contact time of 120 s and dissociation time of 600 s. Rate parameters (kon, koff) and corresponding dissociation constant(KD=koff/kon) were determined by globally fitting all of the experimental data to a simple 1:1 interaction model using Biaeval software (GE Healthcare). To determine nt binding, 10 concentrations with 2-fold dilutions were tested in duplicate. The highest concentration tested was 2 mM. The compound was injected at a flow rate of 50 μl/min with total contact time of 120 s and dissociation time of 300 s. Equilibrium dissociation constant (KD) was determined using a steady-state affinity algorithm available within Scrubber.
(§2) We then compared the binding of nts (AMP, ADP and ATP) to α1β1γ1, α1β2γ1, α2β2γ1 and α2β2γ3 isoforms in the presence and absence of Mg^2+ and Stau, using SPR technique. […]

In the next test the target is T2, BAP-tagged AMPK α2β2γ1 (Homo sapiens, UniProt O43741+P54619+P54646).
T2 construct: Recombinant full-length AMPK heterotrimeric complexes α1β1γ1, α1β2γ1, α1β2γ3, α2β1γ1, α2β2γ1 and α2β2γ3 were cloned into a tricistronic vector system; 6X-His (N); made in house; host or cells: E. coli BL21-CodonPlus (DE3)-RIPL, co-expressed with BirA
The method, then: as §1, §2

The target of a further test is T3, BAP-tagged AMPK α1β2γ1 (Homo sapiens, UniProt O43741+P54619+Q13131).
T3 construct: Recombinant full-length AMPK heterotrimeric complexes α1β1γ1, α1β2γ1, α1β2γ3, α2β1γ1, α2β2γ1 and α2β2γ3 were cloned into a tricistronic vector system; 6X-His (N); made in house; host or cells: E. coli BL21-CodonPlus (DE3)-RIPL, co-expressed with BirA
The procedure: as §1
(§3) We then compared the binding of nts (AMP, ADP and ATP) to α1β1γ1, α1β2γ1, α2β2γ1 and α2β2γ3 isoforms in the presence and absence of Mg^2+ and Stau, using SPR technique.

The target of a further test is T4, BAP-tagged AMPK α2β2γ3 (Homo sapiens, UniProt O43741+P54646+Q9UGI9).
T4 construct: Recombinant full-length AMPK heterotrimeric complexes α1β1γ1, α1β2γ1, α1β2γ3, α2β1γ1, α2β2γ1 and α2β2γ3 were cloned into a tricistronic vector system; 6X-His (N); made in house; host or cells: E. coli BL21-CodonPlus (DE3)-RIPL, co-expressed with BirA
The procedure:
as §1, §3

Setting [1] is: presence of Mg2+ and 25 nM Stau, cell spans KD1 and KD2, read-out: KD (single measurable binding affinity).
The mark [2] stands for this setting: presence of Mg2+, cell spans KD1 and KD2, read-out: KD (single measurable binding affinity).
Where [3] appears, read: tighter site, absence of Mg2+ and Stau, read-out: KD1.
The mark [4] stands for this setting: weaker site, absence of Mg2+ and Stau, read-out: KD2.

T3 sequence (Q13131 whole entry): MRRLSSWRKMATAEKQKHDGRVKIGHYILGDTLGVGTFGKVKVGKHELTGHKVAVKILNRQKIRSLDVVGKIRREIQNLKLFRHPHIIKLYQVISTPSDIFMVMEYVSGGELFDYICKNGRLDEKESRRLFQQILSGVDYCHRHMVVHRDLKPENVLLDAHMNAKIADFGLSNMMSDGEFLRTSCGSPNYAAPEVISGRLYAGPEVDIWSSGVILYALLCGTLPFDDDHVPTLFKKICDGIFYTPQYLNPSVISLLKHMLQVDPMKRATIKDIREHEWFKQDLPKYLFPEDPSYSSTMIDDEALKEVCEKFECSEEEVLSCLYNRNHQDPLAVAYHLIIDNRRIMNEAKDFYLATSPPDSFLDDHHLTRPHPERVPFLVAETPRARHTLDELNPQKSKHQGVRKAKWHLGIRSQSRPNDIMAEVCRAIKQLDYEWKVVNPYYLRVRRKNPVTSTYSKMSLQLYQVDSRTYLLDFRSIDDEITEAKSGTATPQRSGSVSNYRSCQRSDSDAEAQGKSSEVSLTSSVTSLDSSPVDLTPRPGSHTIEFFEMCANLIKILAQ
T3 sequence (O43741 whole entry): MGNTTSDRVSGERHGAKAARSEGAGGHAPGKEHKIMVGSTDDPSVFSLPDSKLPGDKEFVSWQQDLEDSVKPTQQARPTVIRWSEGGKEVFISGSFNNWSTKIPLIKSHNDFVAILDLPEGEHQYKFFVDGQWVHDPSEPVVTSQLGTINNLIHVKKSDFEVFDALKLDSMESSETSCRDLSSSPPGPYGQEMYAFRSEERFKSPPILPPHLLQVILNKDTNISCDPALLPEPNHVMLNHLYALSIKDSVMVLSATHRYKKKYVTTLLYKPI
T3 sequence (P54619 whole entry): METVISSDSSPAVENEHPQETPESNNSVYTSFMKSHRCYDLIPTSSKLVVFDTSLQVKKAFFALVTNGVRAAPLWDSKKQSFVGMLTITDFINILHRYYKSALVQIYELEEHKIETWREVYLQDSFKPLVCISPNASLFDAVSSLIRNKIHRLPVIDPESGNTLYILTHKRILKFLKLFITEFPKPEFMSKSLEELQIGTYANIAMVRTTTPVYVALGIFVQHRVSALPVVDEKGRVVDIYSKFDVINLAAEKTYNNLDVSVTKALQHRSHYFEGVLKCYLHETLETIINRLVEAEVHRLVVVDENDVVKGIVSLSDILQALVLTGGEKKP
T1 sequence (Q13131 whole entry): as the sequence (Q13131 whole entry) above
T1 sequence (Q9Y478 whole entry): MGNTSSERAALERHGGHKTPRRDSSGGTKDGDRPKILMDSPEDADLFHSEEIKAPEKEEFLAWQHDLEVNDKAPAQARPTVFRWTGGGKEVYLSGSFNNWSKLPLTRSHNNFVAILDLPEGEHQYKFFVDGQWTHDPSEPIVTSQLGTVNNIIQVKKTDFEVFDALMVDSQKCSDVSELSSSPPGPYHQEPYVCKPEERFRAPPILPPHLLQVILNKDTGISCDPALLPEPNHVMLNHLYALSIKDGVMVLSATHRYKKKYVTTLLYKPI
T1 sequence (P54619 whole entry): as the sequence (P54619 whole entry) above
T2 sequence (P54646 whole entry): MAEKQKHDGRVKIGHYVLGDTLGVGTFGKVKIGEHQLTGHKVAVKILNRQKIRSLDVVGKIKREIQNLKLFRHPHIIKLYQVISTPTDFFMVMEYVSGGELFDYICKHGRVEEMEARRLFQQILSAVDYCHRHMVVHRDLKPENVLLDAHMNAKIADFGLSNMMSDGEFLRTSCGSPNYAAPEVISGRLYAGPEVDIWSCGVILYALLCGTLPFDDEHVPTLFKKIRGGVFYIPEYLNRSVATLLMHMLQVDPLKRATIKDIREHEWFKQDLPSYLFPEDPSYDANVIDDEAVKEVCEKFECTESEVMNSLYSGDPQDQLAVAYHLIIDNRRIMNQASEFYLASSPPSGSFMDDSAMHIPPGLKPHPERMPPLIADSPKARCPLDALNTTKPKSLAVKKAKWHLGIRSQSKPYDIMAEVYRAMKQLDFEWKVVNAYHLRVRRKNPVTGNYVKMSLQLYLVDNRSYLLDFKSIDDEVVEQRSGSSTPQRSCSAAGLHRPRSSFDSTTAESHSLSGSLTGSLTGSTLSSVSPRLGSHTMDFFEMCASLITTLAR
T2 sequence (O43741 whole entry): as the sequence (O43741 whole entry) above
T2 sequence (P54619 whole entry): as the sequence (P54619 whole entry) above
T4 sequence (P54646 whole entry): as the sequence (P54646 whole entry) above
T4 sequence (O43741 whole entry): as the sequence (O43741 whole entry) above
T4 sequence (Q9UGI9 whole entry): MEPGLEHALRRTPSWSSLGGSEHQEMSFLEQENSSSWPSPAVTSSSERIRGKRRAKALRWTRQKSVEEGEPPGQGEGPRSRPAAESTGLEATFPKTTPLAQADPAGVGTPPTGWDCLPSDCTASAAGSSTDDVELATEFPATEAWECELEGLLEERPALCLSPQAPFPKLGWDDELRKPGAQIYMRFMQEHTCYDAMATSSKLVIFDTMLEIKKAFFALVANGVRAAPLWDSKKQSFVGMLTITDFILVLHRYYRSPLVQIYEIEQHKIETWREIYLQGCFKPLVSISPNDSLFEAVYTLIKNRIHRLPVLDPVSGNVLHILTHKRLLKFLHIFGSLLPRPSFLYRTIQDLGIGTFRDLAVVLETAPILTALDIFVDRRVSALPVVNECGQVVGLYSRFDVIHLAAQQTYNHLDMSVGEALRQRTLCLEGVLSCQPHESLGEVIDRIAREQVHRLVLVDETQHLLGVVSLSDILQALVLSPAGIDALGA

`Nc1ncnc2c1ncn2[C@@H]1O[C@H](COP(=O)(O)OP(=O)(O)O)[C@@H](O)[C@H]1O` [ADP]: the Kd was 24.4 ± 0.4 µM on BAP-tagged AMPK α1β1γ1 (setting [1]); 33.3 ± 0.3 µM on BAP-tagged AMPK α1β1γ1 (setting [2]); 4.75 ± 0.08 µM on BAP-tagged AMPK α1β1γ1 (setting [3]); 1010 ± 80 µM at BAP-tagged AMPK α1β1γ1 (setting [4]); 11.9 ± 0.3 µM on BAP-tagged AMPK α2β2γ1 (setting [1]); 22.8 ± 0.5 µM on BAP-tagged AMPK α2β2γ1 (setting [2]). The Kd is 2.47 ± 0.09 µM at BAP-tagged AMPK α2β2γ1 (setting [3]); 2600 ± 300 µM at BAP-tagged AMPK α2β2γ1 (setting [4]); 15 ± 1 µM at BAP-tagged AMPK α1β2γ1 (setting [1]); 28.2 ± 0.3 µM at BAP-tagged AMPK α1β2γ1 (setting [2]); 4.2 ± 0.2 µM at BAP-tagged AMPK α1β2γ1 (setting [3]); 2600 ± 400 µM at BAP-tagged AMPK α1β2γ1 (setting [4]). Further, the Kd on BAP-tagged AMPK α2β2γ3 (setting [1]) was 12.5 ± 0.1 µM; at BAP-tagged AMPK α2β2γ3 (setting [2]), 19 ± 0.2 µM; at BAP-tagged AMPK α2β2γ3 (setting [3]), 11.2 ± 0.3 µM; on BAP-tagged AMPK α2β2γ3 (setting [4]) it was 1500 ± 200 µM.
